Where “and” joins values, the source holds several entries; their conditions need not be identical. Equal entries are not always repeated. Toxic doses and inconclusive results are not listed. Rule as the data show it: active = T/C of 150% or more; inactive = T/C below 125%.
Tested on: L1210 leukemia ip in BDF1 mice, survival T/C
Test: NCI In Vivo Anticancer Drug Screen. Data for tumor model L1210 Leukemia (intraperitoneal) in B6D2F1 (BDF1) mice
Conditions: endpoint: mean survival time, higher = longer survival
In short: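 Tumor cells were implanted, animals were treated, and survival was followed. The result divides the treated measurement by the vehicle-control measurement.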

[1] = dose: 100.0 mg/kg/injection, schedule: Q01DX009 (ip), vehicle: Klucel (hydroxypropylcellulose) (HPC)
[2] = dose: 100.0 mg/kg/injection, schedule: Q04DX002 (ip), vehicle: Klucel (hydroxypropylcellulose) (HPC)
[3] = dose: 200.0 mg/kg/injection, schedule: Q04DX002 (ip), vehicle: Klucel (hydroxypropylcellulose) (HPC)
[4] = dose: 100.0 mg/kg/injection, schedule: Q01DX001 (ip), vehicle: saline
[5] = dose: 200.0 mg/kg/injection, schedule: Q01DX001 (ip), vehicle: saline
[6] = dose: 400.0 mg/kg/injection, schedule: Q01DX001 (ip), vehicle: saline
[7] = dose: 100.0 mg/kg/injection, schedule: Q01DX009 (ip), vehicle: saline with Tween-80
[8] = dose: 200.0 mg/kg/injection, schedule: Q01DX009 (ip), vehicle: saline with Tween-80
[9] = dose: 300.0 mg/kg/injection, schedule: Q01DX001 (ip), vehicle: saline
[10] = dose: 50.0 mg/kg/injection, schedule: Q04DX002 (ip), vehicle: saline
[11] = dose: 100.0 mg/kg/injection, schedule: Q04DX002 (ip), vehicle: saline
[12] = dose: 200.0 mg/kg/injection, schedule: Q04DX002 (ip), vehicle: saline

Measured: T/C

c1ccc(COCc2ccc(C3N(c4ccccc4)CCN3c3ccccc3)o2)cc1
inactive: dose: 100.0 mg/kg/injection, schedule: Q04DX002 (ip), vehicle: saline with Tween-80 96 % of control | dose: 200.0 mg/kg/injection, schedule: Q04DX002 (ip), vehicle: saline with Tween-80 96 % of control | dose: 400.0 mg/kg/injection, schedule: Q04DX002 (ip), vehicle: saline with Tween-80 104 % of control

CCOc1ccc(CC(=O)Nc2cc([N+](=O)[O-])ccc2NCCN(CC)CC)cc1
inactive: dose: 25.0 mg/kg/injection, schedule: Q04DX003 (ip), vehicle: other 97 % of control | dose: 50.0 mg/kg/injection, schedule: Q04DX003 (ip), vehicle: other 97 % of control | dose: 100.0 mg/kg/injection, schedule: Q04DX003 (ip), vehicle: other 95 % of control and 111 % of control

CC(C)=CCN(CC=C(C)C)CCC(C#N)(CCN(CC=C(C)C)CC=C(C)C)c1cccc2ccccc12
inactive: [1] 86 % of control

CNC(=O)c1ccc(Cl)c(S(=O)(=O)NC)c1
inactive: [2] 100 % of control | [3] 104 % of control | dose: 400.0 mg/kg/injection, schedule: Q04DX002 (ip), vehicle: Klucel (hydroxypropylcellulose) (HPC) 107 % of control

NC(N)=N/N=C/c1ccccc1S(=O)(=O)O
inactive: dose: 15.0 mg/kg/injection, schedule: Q01DX Z (ip), vehicle: saline 92 % of control | dose: 30.0 mg/kg/injection, schedule: Q01DX Z (ip), vehicle: saline 95 % of control | dose: 60.0 mg/kg/injection, schedule: Q01DX Z (ip), vehicle: saline 94 % of control | dose: 60.0 mg/kg/injection, schedule: Q01DX Z (oral), vehicle: other 98 % of control | dose: 120.0 mg/kg/injection, schedule: Q01DX Z (ip), vehicle: saline 86 % of control | dose: 120.0 mg/kg/injection, schedule: Q01DX Z (oral), vehicle: other 101 % of control | dose: 240.0 mg/kg/injection, schedule: Q01DX Z (oral), vehicle: other 97 % of control | dose: 480.0 mg/kg/injection, schedule: Q01DX Z (oral), vehicle: other 98 % of control

O=C(O)COc1cc(Cl)c(Cl)cc1Cl (tested in a mixture with another compound)
inactive: dose: 25.0 mg/kg/injection, schedule: Q01DX001 (ip), vehicle: saline 110 % of control | dose: 50.0 mg/kg/injection, schedule: Q01DX001 (ip), vehicle: saline 93 % of control

O=S(=O)(C1CC1c1ccccc1)N1CCOCC1 (stereo not drawn)
inactive: [4] 101 % of control | [5] 106 % of control | [6] 95 % of control

O=c1[nH]c(=O)n2n1CC(Br)C(Br)C2 (stereo not drawn)
inactive: [7] 94 % of control | dose: 100.0 mg/kg/injection, schedule: Q04DX003 (ip), vehicle: saline with Tween-80 106 % of control | [8] 96 % of control | dose: 200.0 mg/kg/injection, schedule: Q04DX003 (ip), vehicle: saline with Tween-80 110 % of control | dose: 400.0 mg/kg/injection, schedule: Q01DX009 (ip), vehicle: saline with Tween-80 100 % of control | dose: 400.0 mg/kg/injection, schedule: Q04DX003 (ip), vehicle: saline with Tween-80 94 % of control

CN(C(=O)CCCCl)c1cc([N+](=O)[O-])ccc1OCc1ccccc1
inactive: dose: 75.0 mg/kg/injection, schedule: Q01DX001 (ip), vehicle: saline 103 % of control | dose: 150.0 mg/kg/injection, schedule: Q01DX001 (ip), vehicle: saline 104 % of control | [9] 103 % of control

CCCC(NC(=O)CN)C(=O)O (stereo not drawn)
inactive: [10] 96 % of control | [11] 101 % of control | [12] 96 % of control

C[n+]1ccccc1Cl
inactive: [10] 115 % of control | [11] 108 % of control | [12] 110 % of control

CCOCCOCCOCCCNCCCN1CC1
inactive: dose: 88.0 mg/kg/injection, schedule: Q01DX009 (ip), vehicle: saline 117 % of control | dose: 200.0 mg/kg/injection, schedule: Q01DX009 (ip), vehicle: saline 96 % of control | [9] 116 % of control

CCCCCCCC(C(=O)O)C(CCCCCCC)C(=O)O (stereo not drawn)
inactive: dose: 6.0 mg/kg/injection, schedule: Q01DX009 (ip), vehicle: saline 89 % of control | dose: 12.0 mg/kg/injection, schedule: Q01DX009 (ip), vehicle: saline 96 % of control | dose: 12.0 mg/kg/injection, schedule: Q04DX003 (ip), vehicle: saline 98 % of control | dose: 25.0 mg/kg/injection, schedule: Q04DX003 (ip), vehicle: saline 104 % of control

CCCCCSP(=O)(SCCCCC)c1ccccc1
inactive: [1] 91 % of control | dose: 200.0 mg/kg/injection, schedule: Q01DX009 (ip), vehicle: Klucel (hydroxypropylcellulose) (HPC) 94 % of control

NC(N)=Nc1ccc(C(=O)Oc2ccc([N+](=O)[O-])cc2Cl)cc1
inactive: dose: 25.0 mg/kg/injection, schedule: Q01DX009 (ip), vehicle: saline 94 % of control | dose: 50.0 mg/kg/injection, schedule: Q01DX009 (ip), vehicle: saline 97 % of control | dose: 100.0 mg/kg/injection, schedule: Q01DX009 (ip), vehicle: saline 87 % of control | dose: 100.0 mg/kg/injection, schedule: Q04DX003 (ip), vehicle: saline 96 % of control | dose: 200.0 mg/kg/injection, schedule: Q04DX003 (ip), vehicle: saline 94 % of control

NNC(=O)CNc1ccc(F)cc1Br
inactive: [2] 101 % of control | [3] 101 % of control

CC1(C)N=C(N)N=C(N)N1c1cccc(C(=O)CCl)c1
inactive: dose: 25.0 mg/kg/injection, schedule: Q01DX001 (ip), vehicle: saline with Tween-80 95 % of control | dose: 50.0 mg/kg/injection, schedule: Q01DX001 (ip), vehicle: saline with Tween-80 103 % of control | dose: 100.0 mg/kg/injection, schedule: Q01DX001 (ip), vehicle: saline with Tween-80 101 % of control

CCN1CCC2=C(CCCC2O)C1 (stereo not drawn)
inactive: dose: 75.0 mg/kg/injection, schedule: Q01DX001 (ip), vehicle: steriod suspending solution 104 % of control | dose: 150.0 mg/kg/injection, schedule: Q01DX001 (ip), vehicle: steriod suspending solution 98 % of control

Nc1cc(=S)c2[nH]cnc2[nH]1
inactive: dose: 100.0 mg/kg/injection, schedule: Q01DX001 (ip), vehicle: Klucel (hydroxypropylcellulose) (HPC) 92 % of control | dose: 400.0 mg/kg/injection, schedule: Q01DX001 (ip), vehicle: Klucel (hydroxypropylcellulose) (HPC) 88 % of control

COc1ccc2c(c1OC)CCCCC2=O
inactive: dose: 50.0 mg/kg/injection, schedule: Q01DX009 (ip), vehicle: saline with Tween-80 102 % of control | [7] 98 % of control | [8] 91 % of control

CC(C)(O)C(CO)c1ccccc1 (stereo not drawn)
inactive: [4] 96 % of control

CCCCNC(C)(C)C(SS)c1ccc(Cl)cc1 (stereo not drawn)
inactive: dose: 50.0 mg/kg/injection, schedule: Q01DX009 (ip), vehicle: other 94 % of control | dose: 100.0 mg/kg/injection, schedule: Q01DX009 (ip), vehicle: other 92 % of control

c1ccc2c(c1)ccc1c3ccncc3ccc21
inactive: [4] 101 % of control | [5] 98 % of control | [6] 98 % of control

CC(C)NC(=O)Nc1ccc(F)cc1
inactive: dose: 100.0 mg/kg/injection, schedule: Q01DX009 (ip), vehicle: acetone 92 % of control | dose: 200.0 mg/kg/injection, schedule: Q01DX009 (ip), vehicle: acetone 101 % of control | dose: 400.0 mg/kg/injection, schedule: Q01DX009 (ip), vehicle: acetone 94 % of control
